According to ChEMBL document CHEMBL5252560 (Bioorg Med Chem Lett, 2023):
Calls of active or inactive are those of the source. The calls are words filed in the database; no cut-off is given here.

What was measured:
[1] = test system: HepG2; test: Induction of cell cycle arrest in human HepG2 cells assessed as accumulation of cells at G2 phase at 100 nM by propidium iodide staining based flow cytometric analysis (reference value: 8.58%); assay type: functional
[2] = test system: A549; test: Antiproliferative activity against human A549 cells assessed as cell growth inhibition; assay type: functional, cell-based
[3] = test system: U-937; test: Antiproliferative activity against human U-937 cells assessed as cell growth inhibition; assay type: functional, cell-based
[4] = test system: HepG2; test: Antiproliferative activity against human HepG2 cells assessed as cell growth inhibition; assay type: functional, cell-based
[5] = test system: Y79; test: Antiproliferative activity against human Y79 cells assessed as cell growth inhibition; assay type: functional, cell-based
[6] = biological target: T1, Tubulin (Homo sapiens) (UniProt P68371+Q9H4B7+P0DPH7+P68366+Q13509+Q71U36+P04350+Q3ZCM7+P07437+P68363+Q9BQE3+Q6PEY2+Q13885+Q9BVA1+Q9BUF5); test: Inhibition of tubulin (unknown origin) polymerization assessed as reduction in fluorescence intensity at 4 uM; assay type: protein-complex assay
[7] = biological target: T1, Tubulin (Homo sapiens); test: Disruption of microtubule assembly in human HepG2 cells assessed as changes in cell morphology at 100 nM by immunofluorescence analysis; assay type: cell-based
[8] = biological target: T1, Tubulin (Homo sapiens); test: Disruption of microtubule assembly in human HepG2 cells assessed as loss of microtubule structure at 100 nM by immunofluorescence analysis; assay type: cell-based
[9] = test system: HepG2; test: Induction of cell cycle arrest in human HepG2 cells assessed as accumulation of cells at G1 phase at 25 nM by propidium iodide staining based flow cytometric analysis (reference value: 72.08 %); assay type: functional
[10] = test system: HepG2; test: Induction of cell cycle arrest in human HepG2 cells assessed as accumulation of cells at G1 phase at 50 nM by propidium iodide staining based flow cytometric analysis (reference value: 72.08 %); assay type: functional
[11] = test system: HepG2; test: Induction of cell cycle arrest in human HepG2 cells assessed as accumulation of cells at G1 phase at 100 nM by propidium iodide staining based flow cytometric analysis (reference value: 72.08 %); assay type: functional
[12] = test system: HepG2; test: Induction of cell cycle arrest in human HepG2 cells assessed as accumulation of cells at S phase at 25 nM by propidium iodide staining based flow cytometric analysis (reference value: 19.34%); assay type: functional
[13] = test system: HepG2; test: Induction of cell cycle arrest in human HepG2 cells assessed as accumulation of cells at S phase at 50 nM by propidium iodide staining based flow cytometric analysis (reference value: 19.34%); assay type: functional
[14] = test system: HepG2; test: Induction of cell cycle arrest in human HepG2 cells assessed as accumulation of cells at S phase at 100 nM by propidium iodide staining based flow cytometric analysis (reference value: 19.34%); assay type: functional
[15] = test system: HepG2; test: Induction of cell cycle arrest in human HepG2 cells assessed as accumulation of cells at G2 phase at 25 nM by propidium iodide staining based flow cytometric analysis (reference value: 8.58%); assay type: functional
[16] = test system: HepG2; test: Induction of cell cycle arrest in human HepG2 cells assessed as accumulation of cells at G2 phase at 50 nM by propidium iodide staining based flow cytometric analysis (reference value: 8.58%); assay type: functional
[17] = test system: HepG2; test: Induction of cell cycle arrest in human HepG2 cells assessed as accumulation of cells at G1 phase at 50 nM incubated for 6 hrs by propidium iodide staining based flow cytometric analysis (reference value: 62.58%); assay type: functional
[18] = test system: HepG2; test: Induction of cell cycle arrest in human HepG2 cells assessed as accumulation of cells at S phase at 50 nM incubated for 6 hrs by propidium iodide staining based flow cytometric analysis (reference value: 22.36%); assay type: functional
[19] = test system: HepG2; test: Induction of cell cycle arrest in human HepG2 cells assessed as accumulation of cells at G2 phase at 50 nM incubated for 6 hrs by propidium iodide staining based flow cytometric analysis (reference value: 15.06%); assay type: functional
[20] = test system: HepG2; test: Induction of cell cycle arrest in human HepG2 cells assessed as accumulation of cells at G1 phase at 50 nM incubated for 12 hrs by propidium iodide staining based flow cytometric analysis (reference value: 62.58%); assay type: functional
[21] = test system: HepG2; test: Induction of cell cycle arrest in human HepG2 cells assessed as accumulation of cells at S phase at 50 nM incubated for 12 hrs by propidium iodide staining based flow cytometric analysis (reference value: 22.36%); assay type: functional
[22] = test system: HepG2; test: Induction of cell cycle arrest in human HepG2 cells assessed as accumulation of cells at G2 phase at 50 nM incubated for 12 hrs by propidium iodide staining based flow cytometric analysis (reference value: 15.06%); assay type: functional
[23] = test system: HepG2; test: Induction of cell cycle arrest in human HepG2 cells assessed as accumulation of cells at G1 phase at 50 nM incubated for 24 hrs by propidium iodide staining based flow cytometric analysis (reference value: 62.58%); assay type: functional
[24] = test system: HepG2; test: Induction of cell cycle arrest in human HepG2 cells assessed as accumulation of cells at S phase at 50 nM incubated for 24 hrs by propidium iodide staining based flow cytometric analysis (reference value: 22.36%); assay type: functional
[25] = test system: HepG2; test: Induction of cell cycle arrest in human HepG2 cells assessed as accumulation of cells at G2 phase at 50 nM incubated for 24 hrs by propidium iodide staining based flow cytometric analysis (reference value: 15.06%); assay type: functional
[26] = test system: HepG2; test: Inhibition of cell migration in human HepG2 cells at 25 to 100 nM incubated for 48 hrs by wound healing assay; assay type: functional, cell-based; conditions: dose 25-100 nM
[27] = test system: HepG2; test: Inhibition of cell invasion in human HepG2 cells by transwell invasion assay; assay type: functional, cell-based; conditions: dose 25-100 nM
[28] = test system: HepG2; test: Induction of apoptosis in human HepG2 cells by AnnexinV-FITC/PI-staining based flow cytometry; assay type: functional, cell-based; conditions: dose 25-100 nM

- IC50 [2]: 271 nM
- IC50 [3]: 138 nM
- IC50 [4]: 65 nM
- inhibition [6]: Active
- Activity [7]: Active
- Activity [8]: Active
Structure (SMILES): COc1cc(C(/C=C/c2ccc3[nH]ccc3c2)=N/O)cc(OC)c1OC
- Activity [1]: 70.39%
- IC50 [5]: 251 nM
- Activity [9]: 71.68%
- Activity [10]: 56.33%
- Activity [11]: 6%
- Activity [12]: 4.78%
- Activity [13]: 4.81%
- Activity [14]: 23.61%
- Activity [15]: 23.54%
- Activity [16]: 38.86%
- Activity [17]: 63.46%
- Activity [18]: 18.56%
- Activity [19]: 17.98%
- Activity [20]: 56.18%
- Activity [21]: 17.79%
- Activity [22]: 25.73%
- Activity [23]: 60.13%
- Activity [24]: 26.95%
- Activity [25]: 26.95%
- inhibition [26]: Active
- inhibition [27]: Dose-Dependent Effect
- Activity [28]: Dose-Dependent Effect
